Measured values published in ChEMBL document CHEMBL1201862, “PubChem BioAssay data set” (2004).
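Dose response: 5 concentrations. Exposure: 48 h. Format: 96-well plates. Endpoint: linear interpolation; highest concentration if not reached. The concentration for 50% growth inhibition is given as GI50.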 Active and inactive are the calls of the source. Rule as the data show it: active = GI50 up to about 1.1 µM and inactive = higher.

How the values were obtained:
Experiment in all cases: NCI-60 cell line screen, 48 h
[1] = system: SNB-19
[2] = system: U-251
[3] = system: HCT-15
[4] = system: BT-549
[5] = system: OVCAR-4
[6] = system: NCI-H522
[7] = system: SR
[8] = system: SF-539
[9] = system: MDA-N
[10] = system: HOP-62
[11] = system: SF-295
[12] = system: UO-31
[13] = system: LOX IMVI
[14] = system: NCI-H226
[15] = system: HT-29
[16] = system: NCI-H23
[17] = system: SK-OV-3
[18] = system: SW-620
[19] = system: SK-MEL-28

Structure (SMILES)	GI50 [1]	GI50 [2]	GI50 [3]	GI50 [4]	GI50 [5]	GI50 [6]	GI50 [7]	GI50 [8]	GI50 [9]	GI50 [10]	GI50 [11]	GI50 [12]	GI50 [13]	GI50 [14]	GI50 [15]	GI50 [16]	GI50 [17]	GI50 [18]	GI50 [19]
O=C(CCc1cccc(O)c1)NCCc1cccc(OCc2ccccc2)c1	22.8 µM (inactive)	16.5 µM (inactive)	19.9 µM	16.1 µM (inactive)	20.1 µM (inactive)	17.1 µM (inactive)	25 µM (inactive)	16.8 µM (inactive)	18.6 µM (inactive)	15.3 µM (inactive)	16.7 µM (inactive)	8.93 µM (inactive)	15.6 µM (inactive)	11.4 µM (inactive)	16.6 µM (inactive)	18.9 µM (inactive)	23.6 µM (inactive)	21.3 µM (inactive)	16.1 µM (inactive)
C=C1CC(COc2ccc3c(C)c(Cl)c(=O)oc3c2)(c2ccccc2)OC1=O (stereo unspecified)	13.8 µM (inactive)	8.15 µM (inactive)	2.26 µM	1.53 µM (inactive)	1.67 µM (inactive)	1.14 µM (inactive)	1.3 µM (inactive)	3.38 µM (inactive)	2.07 µM (inactive)	7.03 µM (inactive)	7.13 µM (inactive)	3.33 µM (inactive)	0.887 µM (active)	2.34 µM (inactive)	1.24 µM (inactive)	1.57 µM (inactive)	5.92 µM (inactive)	0.69 µM (active)	2.11 µM (inactive)
CN(C)c1ccc(C=c2c3ccccc3n3c2c2c([n+]3C)CCCC2)cc1	0.0698 µM (active)	0.0223 µM (active)	1.87 µM	0.186 µM (active)	0.255 µM (active)	0.161 µM (active)	0.0233 µM (active)	0.165 µM (active)	0.1 µM (active)	0.165 µM (active)	0.0991 µM (active)	1.12 µM (inactive)	0.143 µM (active)	0.447 µM (active)	0.114 µM (active)	0.269 µM (active)	0.32 µM (active)	0.118 µM (active)	0.542 µM (active)
Nc1nc(Cl)cc(NCC2(CO)CC(O)C2)n1 (stereo unspecified)	> 100 µM (inactive)	> 100 µM (inactive)	> 100 µM	> 100 µM (inactive)	> 100 µM (inactive)	> 100 µM (inactive)	> 100 µM (inactive)	> 100 µM (inactive)	> 100 µM (inactive)	> 100 µM (inactive)	> 100 µM (inactive)	> 100 µM (inactive)	> 100 µM (inactive)	> 100 µM (inactive)	> 100 µM (inactive)	> 100 µM (inactive)	> 100 µM (inactive)	> 100 µM (inactive)	> 100 µM (inactive)
CC(=O)OCC(=O)O[C@@H]1[C@H]2[C@@H](OC(=O)c3ccccc3)[C@@H](C)C[C@]2(O)[C@H](OC(C)=O)[C@@]2(C)C(OC(C)=O)[C@]1(OC(C)=O)C[C@H]1C(=O)C(C)(C)C[C@@H]12 (stereo partly specified)	> 50 µM (inactive)	> 50 µM (inactive)	> 47.1 µM	> 35 µM (inactive)	> 34.2 µM (inactive)	> 50 µM (inactive)	> 50 µM (inactive)	34.5 µM (inactive)	18.1 µM (inactive)	> 22.6 µM (inactive)	22.4 µM (inactive)	> 50 µM (inactive)	> 50 µM (inactive)	> 50 µM (inactive)	25.8 µM (inactive)	> 50 µM (inactive)	> 50 µM (inactive)	> 50 µM (inactive)	> 50 µM (inactive)
CCCCCCn1c(SC)nc(COC(=O)NC)c1COC(=O)NC	16.1 µM (inactive)	–	32.4 µM	19.5 µM (inactive)	9.57 µM (inactive)	11.4 µM (inactive)	19.7 µM (inactive)	17.6 µM (inactive)	19.2 µM (inactive)	19.6 µM (inactive)	20.2 µM (inactive)	16.9 µM (inactive)	21.3 µM (inactive)	17.2 µM (inactive)	20 µM (inactive)	21.2 µM (inactive)	19 µM (inactive)	19.2 µM (inactive)	17.7 µM (inactive)
CN1CCN(c2nc3cc(F)ccc3n3cccc23)CC1	60.3 µM (inactive)	41.5 µM (inactive)	32.1 µM	49.2 µM (inactive)	30.3 µM (inactive)	46.5 µM (inactive)	43.8 µM (inactive)	21.1 µM (inactive)	30.4 µM (inactive)	31 µM (inactive)	21.2 µM (inactive)	40.1 µM (inactive)	15.8 µM (inactive)	13.7 µM (inactive)	24.9 µM (inactive)	36 µM (inactive)	45.4 µM (inactive)	30.5 µM (inactive)	21.4 µM (inactive)
C[n+]1c(-c2ccc(/C=C/C=N\NC(=O)c3ccc(C(=O)N/N=C\C=C\c4ccc(-c5cn6ccccc6[n+]5C)cc4)cc3)cc2)cn2ccccc21	> 63.4 µM (inactive)	44.7 µM (inactive)	> 100 µM	38.2 µM (inactive)	> 81.7 µM (inactive)	> 100 µM (inactive)	19.9 µM (inactive)	> 100 µM (inactive)	> 100 µM (inactive)	> 100 µM (inactive)	> 100 µM (inactive)	> 100 µM (inactive)	> 68.7 µM (inactive)	> 100 µM (inactive)	> 100 µM (inactive)	71.4 µM (inactive)	> 100 µM (inactive)	> 100 µM (inactive)	> 100 µM (inactive)
